Results on five compounds are retold here after patent US11590199B2, “Use of an ABC transporter peptide inhibitor” (HUNAN UNIVERSITY OF SCIENCE AND ENGINEERING, priority 2021, dated 2023).

In test [1] the test system is KB-3-1 parental cell line. Kind of test: MDR reversal study (MTT), parental KB-3-1. It is filed as cell-based. To be noted: chemotherapeutic drug alone.
Test [2] concerns HEK293/pcDNA3.1 parental cell line. Put plainly: MDR reversal study (MTT), parental HEK293/pcDNA3.1. The class given is cell-based. To be noted: for IC50 / RF: chemotherapeutic drug alone.
The subject of test [3] is drug-induced ABCC1-overexpressing cancer cell line KB-CV60. Kind of test: MDR reversal study (MTT), drug-induced ABCC1-overexpressing cells. The class given is cell-based. Conditions: chemotherapeutic drug alone, Table 4.
In test [4] the test system is transfected ABCC1-overexpressing cell line HEK293/ABCC1. Put plainly: MDR reversal study (MTT), transfected ABCC1-overexpressing cells. It is filed as cell-based. To be noted: chemotherapeutic drug alone.
In test [5] the test system is drug-induced ABCB1-overexpressing cancer cell line KB-C2. Kind of test: MDR reversal study (MTT), drug-induced ABCB1-overexpressing cells. Conditions: chemotherapeutic drug alone.
In the next test the test system is parental cells (KB-3-1). Put plainly: cells. To be noted: Homo sapiens.

SMILES strings stand for the structures.

In general, IC50 refers to the concentration at which inhibition is half-maximal. With `N.N.[Cl][Pt][Cl]` [Cisplatin], the half-maximal inhibitory concentration (IC50) turned out to be 1.79 ± 0.476 µM in test [1] (Table 2); 1.79 µM in test [1] (Table 4); 2.21 ± 0.541 µM in test [2] (Table 3); 2.21 µM in test [2] (Table 5); 2.23 µM in test [3]; 2.23 µM in test [4]. Further, the RF in test [1] (Table 2) is 1.00; in test [1] (Table 4) it was 1.00; in test [2] (Table 3) it was 1.00; in test [2] (Table 5), 1.00; in test [3] it was 1.25; in test [4], 1.01. Also, the RF entry in test [5] is reported as “± 0.428 (1.13)”.

Turning to `CC(=O)O[C@H]1C(=O)[C@@]2(C)[C@H]([C@H](OC(=O)c3ccccc3)[C@]3(O)C[C@H](OC(=O)[C@H](O)[C@@H](NC(=O)c4ccccc4)c4ccccc4)C(C)=C1C3(C)C)[C@]1(OC(C)=O)CO[C@@H]1C[C@@H]2O` [Paclitaxel], the RF in test [1] (Table 2) and in test [2] (Table 3) was 1.00 in each case.

As for `CC[C@]1(O)C[C@H]2CN(CCc3c([nH]c4ccccc34)[C@@](C(=O)OC)(c3cc4c(cc3OC)N(C=O)[C@H]3[C@@](O)(C(=O)OC)[C@H](OC(C)=O)[C@]5(CC)C=CCN6CC[C@]43[C@@H]65)C2)C1` [Vincristine], the IC50 in test [1] (Homo sapiens, 72 h, Table 4) is 0.095 µM; in test [2] (Homo sapiens, Table 5), 0.137 µM; in the test with parental cells (KB-3-1) it was 0.095 µM. Further, the RF in test [1] (Table 4) was found to be 1.00; in test [2] (Table 5) it was 1.00; in test [3], 169.05; in test [4] it was 19.79.

On to `CN(C)C(=O)CCSC(SCCC(=O)O)c1cccc(/C=C/c2ccc3ccc(Cl)cc3n2)c1` (stereo not shown) [MK571], for which the RF of cisplatin in test [2] (cisplatin + MK571 (5 μM)) is listed as 0.99. The RF of vincristine in test [2] (vincristine + MK571 (5 μM)) turned out to be 1.02.

Regarding `COc1cccc2c1C(=O)c1c(O)c3c(c(O)c1C2=O)C[C@@](O)(C(=O)CO)C[C@@H]3O[C@H]1C[C@H](N)[C@H](O)[C@H](C)O1` [Doxorubicin], the RF in test [1] (Table 2) is given as 1.00.
